In US11229207B2, “Topical avermectin formulations and methods for elimination and prophylaxis of susceptible and treatment resistant strains of head lice” (priority 2006, dated 2022):
Values joined by “and” are separate entries in the source; they are usually repeats but may differ in a detail not shown here. Identical values can stand only once. Like-named read-outs stand apart in the source and are kept apart here.

Assays:
[1] = test system: SF-HL strain of permethrin-resistant human head lice; test: Hair tuft mortality bioassay, permethrin-resistant SF-HL lice; type: in vivo, Pediculus humanus capitis; parameters: LT50 (lethal time to 50% mortality): unit not given beside the values; conditions: 10 minute exposure
Source text: The SF-HL strain of permethrin-resistant human head lice (Pediculus humanus capitis, Phthiraptera:Pediculidae) is collected from infested children in Plantation and Homestead, Fla. and is maintained on an in vitro feeding system at the University of Massachusetts at Amherst, Mass. as described by Yoon et al. (2006). Lice are maintained without a human host on the in vitro rearing system from about 24 to about 36 generations. Permethrin-resistant SF-HL are selected periodically using 1% permethrin-treated filter papers (Yoon et al. 2006). Filter papers (35 mm diameter, Whatman No. 1) are immersed into 1% permethrin dissolved in acetone (w/v) for 10 seconds and is air dried in a dark fumehood from about 20 to about 30 minutes. Mixed developmental stages (first instars to adult) are placed on the treated filter paper and exposed for about 5 hours. Surviving lice are transferred back into the feeding system. The SF-HL strain are susceptible to Ovide® (0.5% malathion), but resistant to Nix® (1% permethim) and cross-resistant to DDT treatments. (Moon et al. 2003).
Mortality bioassays are performed to compare lethal time to 50% mortality values (LT50) between the ivermectin formulations, Nix®, and Ovide®. Experimental lice are newly hatched first instars (less than 24 hours old). The lice are randomly taken from the in vitro rearing system, where the lice take an overnight blood meal. Lice (about 30 lice/treatment) are placed on an individual hair tuft (about 300 strands, about 4 cm in length) using sterile forceps, and the treatment is gently rubbed into the hair until saturation occurs.
After a 10 minute exposure period, the hair tuft with lice are washed sequentially in three separate water baths, containing about 10 ml of ddH2O for about 5 seconds each. The washed hair tuft with lice is blotted onto stacks of filter paper and air dried for about 5 minutes. Any lice dislodged during treatment or washing are placed back onto the treated hair tuft. After drying, the treated hair tuft with lice is examined under a dissecting microscope and the number of dead lice is recorded.
A louse is considered dead if it can not right itself when inverted and when its legs have ceased all movements when probed. Treated hair tufts with lice are then placed onto the feeding membrane in the in vitro rearing system and are maintained at 31° C. and 75% humidity. The numbers of dead lice are reassessed at 10 minute intervals until a greater than 90% mortality is achieved. The timing for mortality begins immediately following the 10 minute exposure period. Because of this, mortality is not assessed during the washing and drying intervals (about 5 minutes). Log time versus logit percent mortality regression lines are generated to determine LT50 and LT95 values and maximum log-likelihood ratio tests are performed to test the equality (slope and intercept) of the regression lines (p<0.05, Polo PC, LeOra Software, 1987).
To determine whether ivermectin in formulation performs better than ivermectin alone, blood-fed lice are placed onto 0.5% (w/v) ivermectin formulation-treated hair tufts as described above. Blood-fed lice are also placed onto hair tufts that are treated with 0.5% ivermectin in acetone (acetone is allowed to volatilize in a fumehood for about 1 hour prior to transferring lice to the treated hair tuft), washed, and transferred to the in vitro rearing system as described above.

[2] = test system: head lice; conditions: cited from earlier work
[3] = test system: SF-HL strain; conditions: Moon et al. 2003; cited from earlier work
[4] = test system: head lice; conditions: cited from earlier work; remark: listed apart in the source
[5] = SF-HL lice, Ovide values are estimated times

## ivermectin [0.5% (non-formulated)]
[1]; [5]
  LT50 (lethal time to 50% mortality): 221.8
  LT95: 419.4
[1]; SF-HL
  times faster than Nix at the LT50: 27.9 times
  times faster than Nix at the LT95: 51.5 times
  times faster than ddH2O treatment at the LT50: 96.7 times
  times faster than ddH2O treatment at the LT95: 103.0 times
  times faster than placebo formulation at the LT50: 31.2 times
  times faster than placebo formulation at the LT95: 82.4 times

## Cl[C@H]1[C@H](Cl)[C@@H](Cl)[C@@H](Cl)[C@H](Cl)[C@H]1Cl [lindane]
[2]; reports in other parts of the world
  efficacy for treating head lice: 61% and 93%
[2]; reports in the U.S.
  efficacy for treating head lice: 17%

## Clc1ccc(C(c2ccc(Cl)cc2)C(Cl)(Cl)Cl)cc1 [DDT]
[3]
  status of the SF-HL strain towards the treatment: cross-resistant

## 22,23-dihydroavermectin B1a and B1b [ivermectin]
[4]; single oral 200 μg/kg dose, n=26 (Glaziou et al. 1994)
  effect against head lice in humans: effective
[4]; single oral dose of 100-200 μg/kg (Dunne et al. 1991)
  results against head lice infestation: Positive, but not absolute, results
